Test results from patent US9029362B2, “Iminothiadiazine dioxide compounds as brace inhibitors, compositions, and their use” (Merck Sharp & Dohme Corp., priority 2009, dated 2015).
pKi: −log10 of the molar value. Where two headings read alike, the source gives them in different places.

Tests used:
Caco-2 cells = assay: Caco-2 Bi-directional Permeability; format: in vitro ADME; conditions: apical to basolateral, 2-hr incubation; for Caco-2 AP → BL (nm/s) (Iminopyrimidinone): iminopyrimidinone analog
Method: (§1) The bi-directional permeability with efflux potential of selected compounds of the invention vs. otherwise structurally identical iminopyrimidinones (collectively referred to as test compounds, shown in the table below) were assessed using Caco-2 cell line. The Caco-2 cells were maintained in DMEM (Dulbecco's Modified Eagle Medium) containing 10% fetal bovine serum, 1% non-essential amino acids, 2 mM L-glutamine, and 1% penicillin-streptomycin in an incubator at ˜37° C. in an atmosphere of 5% CO2 and about 90% relative humidity. The cell culture medium was changed three times weekly. Caco-2 cell monolayers were grown on polyethylene terephthalate filters using 24-well BD Falcon™ Cell Culture Insert Plates (0.33 cm^2 insert area, 1 μm pore size; BD BioSciences, Bedford, Mass.). The culture medium of the plate was changed every other day until used for the transport experiment (21-28 days post seeding).
(§2) The transport buffer (TM) was Hank's balanced salt solution (HBSS) with 10 mM HEPES and 25 mM glucose (pH 7.4) for dosing and TM with 4% bovine serum albumin for receiver (pH 7.4). The bi-directional permeability of the test compounds were tested at concentrations of 1, 10 and 100 μM was measured in triplicate with 2-hr incubation. The cell monolayer integrity was monitored with pre- and post-experimental trans-epithelial electrical resistance and post-experimental Lucifer Yellow (LY) permeability with 1 hr incubation.
(§3) The apparent permeability, recovery and efflux ratio values were calculated using the following equations:

rat cortex Aβ40 = assay: Cortical Aβ40 in rats after oral dose (Luminex immunoassay); format: in vivo; conditions: 3 h after a 10 mg/kg oral dose, relative to vehicle cohort; for Change in rat cortex Aβ40 (Iminopyrimidinone): iminopyrimidinone analog
Method: Male CD rats (˜100 g; Crl:CD(SD); Charles River Laboratories, Kingston, N.Y.) were group housed and acclimated to the vivarium for 5-7 days prior to use in a study. Compounds were formulated in 20% hydroxypropyl-β-cyclodextrin and administered orally with a dosing volume of 5 ml/kg for rats. Three h after drug administration, rats were euthanized with excess CO2. The brain was removed from the skull and immediately frozen on dry ice. All tissues were stored at −70° C. until Aβ quantification.
Ab585 was labeled with biotin (b-Ab585) by first dialyzing the antibody sample extensively versus PBS (pH 7.8) to remove impurities, followed by dilution to between 1 and 2 mg/mL protein concentration. EZ-Link Sulfo-NHS-LC-Biotin (Pierce) was dissolved in PBS (pH 7.8) at a concentration of 1 mg/mL immediately prior to use. Ab585 was labeled with EZ-Link Sulfo-NHS-LC-biotin using a 10:1 biotin:antibody ratio by incubation at room temperature for 1 hour. The labeling reaction was quenched by addition of 1.0 M glycine to a final concentration of 0.1 M followed by 10 minute incubation at room temperature. Glycine was removed by extensive dialysis versus PBS.
The antibody was coupled to the beads using the Bio-Plex Amine Coupling Kit (Bio-Rad) as per the manufacturer's recommendations.
Rat brains were thawed briefly at 37° C. and both mid- and hindbrain regions were removed. The remaining material, consisting primarily of cortex (−800 mg) was carried through the guanidine extraction procedure. Cortices were added to a 2 ml BioPur tube (Eppendorf) along with a 6.35 mm chrome-coated steel ball and 1.0 ml of sucrose homogenization buffer (20 mM HEPES [pH 7.5], 50 mM KCl, 50 mM sucrose, 2 mM EDTA, 2 mM EGTA supplemented with complete protease inhibitors [Roche, EDTA-free]). Samples were then homogenized by agitation for 1.5 min at 30 cylces/sec in a MM300 tissue mixer (Retsch®). The resulting cortical homogenate was extracted with guanidine-HCl by mixing 67 μl of homogenate with 133 μl of 5 M Guanidine HCl, 50 mM Tris HCl (pH 8.0). To maximize the efficiency of Aβ extraction, samples were vortexed and then sonicated for 2 minutes in an ice bath using an Ultrasonics XL cup horn sonicator at a power setting of 8 (Heat Systems, Inc.). Insoluble material was removed by ultracentrifugation using a using a TLA-55 rotor in a TL-100 benchtop centrifuge (Beckman) at 100,000×g for 30 minutes. The resulting supernatant was then either diluted 1:10 in 5 M guanidine HCl, 0.05 M Tris HCl (pH 8.0) for protein analysis (BCA protein assay, Pierce Biochemicals) or assayed neat for Aβ340 levels. The Luminex rodent A1340 assay was performed as follows. First, 96 well filter binding plates (Millipore, catalogue #MSBVN12) were wetted with 100 μl of 1×LAβ40 buffer (0.05 M HEPES [pH 7.5], 0.2% BSA, 0.2% Tween-20, 0.15 M NaCl) by vacuum filtration on a Millipore 96-well manifold. […] Guanidine HCl was added to synthetic rodent Aβ40 standards in order to control for the effect of guanidine in brain extracts on the assay performance. Ten microliters of cortical extract, rodent Aβ40 standards or cortical extract from amyloid precursor protein knockout mice (to define background immunoreactivity) was added to each well. Plates were covered and incubated overnight at 4° C. Following the incubation, wells were cleared by vacuum and washed twice with 100 μl of 1×LAβ40 buffer on a Millipore manifold. Phycoerythrin-conjugated streptavidin (PE-strepavidin, BioRad) for detection of bound b-Ab585 was diluted 100-fold in 1×LA340 buffer and 50 μl was added to each well and incubated for 1 hour at room temperature with shaking.

[1] = Caco-2 Bi-directional Permeability; format: in vitro ADME; conditions: human; for Papp A→B at 2 h: Caco-2, pH 7.4, apical to basolateral, 2-hr incubation, read-out: Caco-2 AP → BL (nm/s) (Iminothiadiazine Dioxide)
Method: as §1, §2, §3

[2] = target: purified human autoBACE-2 (Homo sapiens (Human), UniProt Q9Y5Z0); assay: BACE-2 Assay (BACE-HTRF assay); format: biochemical
Method: Inhibitor IC50s at purified human autoBACE-2 were determined in a time-resolved endpoint proteolysis assay that measures hydrolysis of the QSY7-[sequence]-Eu-amide FRET peptide substrate (BACE-HTRF assay). […] DMSO was present at 5% final concentration in the assay. Following laser excitation of sample wells at 320 nm, the fluorescence signal at 620 nm was collected for 400 ms following a 50 s delay on a RUBYstar HTRF plate reader (BMG Labtechnologies). Raw RFU data was normalized to maximum (1.0 nM BACE/DMSO) and minimum (no enzyme/DMSO)RFU values. […] The Ki values were calculated from the IC50 using the Cheng-Prusoff equation.

[3] = target: soluble human BACE1 catalytic domain (Homo sapiens (Human), UniProt P56817); assay: BACE1 HTRF FRET Assay; format: biochemical; conditions: about values; read-out: Ki value in BACE-1 assay
[4] = Solution stability, Example A (pH 7.4 phosphate buffer/MeOH, LC/MS); format: physicochemical
Method: A 1.05 mg/mL stock solution (5 mL) of Ex. 45 in MeOH was prepared. From the stock solution was taken out 1.25 mL and diluted to 25 mL with the addition of 23.75 mL of 10 mM phosphate buffer (pH 7.4)/MeOH (70/30 v/v). This new solution was split into three. One solution was incubated at 4° C., another incubated at 25° C. and the third incubated at 40° C. Each solution was analyzed by LC/MS after day 1, day 2 and day 6 and compared to a standard calibration curve for Ex. 45.
In the following study, the solution stability of the compound of Example 45 was measured and compared to that of Compound Z. The compound of Example 45 is an iminothiadiazine dioxide compound of the invention. Compound Z is the corresponding iminopyrimidinone compound. The structures of the compound of Example 45 and of Compound Z are shown below. Studies were performed in aqueous pH 7.4 buffer containing methanol at 4° C., 25° C. and 40° C.

[5] = Solution stability, Example B (pH 7.4 phosphate buffer/acetonitrile, 25° C., LC/MS); format: physicochemical; conditions: pH 7.4 buffer at 25° C., after 6 days
Method: Stock solutions of the tested compounds were prepared by dissolving about 3 mg of each compound in 3 mL of acetonitrile. Standards for test compounds were prepared by diluting 1 mL of the stock solution with an additional 4 mL of acetonitrile. These standards were stored at 4° C. Samples were prepared by diluting 1 mL of the stock solution with 4 mL of 50 mM pH 7.4 phosphate buffer. These samples were stored at 25° C. in the absence of light. Standards and samples were analyzed by LC/MS initially and at day 1, day 4, and day 6.
HPLC Conditions: • Mobile phase A: 10 mM pH 5 ammonium acetate buffer: methanol (90:10) • Mobile phase B: 10 mM pH 5 ammonium acetate buffer: methanol (10:90)
Column: Zorbax SB-Phenyl 4.6×50 mm, 1.8 μm • Column temperature: 40° C. • Flow: 0.8 mL/min. • Gradient:
• Detectors: UV at 220 nm and 236 nm
MS, ES ionization, positive mode, for identification only at final time point.
The terms reported in the tables below have the following meanings:
Area % is the integration of peak from HPLC as reported by Waters Empower II software.
RRT is the relative retention time of new product compared to the standard of the test compound.
In the following study, the solution stability of the compound of Example 47 was measured and compared to that of Compound Y. The compound of Example 47 is an iminothiadiazine dioxide compound of the invention. […]

Sequence of soluble human BACE1 catalytic domain (P56817 75-416): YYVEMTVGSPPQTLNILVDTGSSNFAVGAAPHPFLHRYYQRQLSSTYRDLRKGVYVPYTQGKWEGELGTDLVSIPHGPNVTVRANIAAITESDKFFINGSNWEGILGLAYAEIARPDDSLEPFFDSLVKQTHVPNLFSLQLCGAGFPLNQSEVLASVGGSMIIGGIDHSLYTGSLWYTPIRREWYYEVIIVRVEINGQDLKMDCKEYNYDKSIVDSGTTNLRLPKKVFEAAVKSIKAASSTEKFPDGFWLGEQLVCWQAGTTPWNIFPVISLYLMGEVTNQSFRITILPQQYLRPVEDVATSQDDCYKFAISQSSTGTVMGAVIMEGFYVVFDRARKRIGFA
Sequence of purified human autoBACE-2 (Q9Y5Z0 63-518): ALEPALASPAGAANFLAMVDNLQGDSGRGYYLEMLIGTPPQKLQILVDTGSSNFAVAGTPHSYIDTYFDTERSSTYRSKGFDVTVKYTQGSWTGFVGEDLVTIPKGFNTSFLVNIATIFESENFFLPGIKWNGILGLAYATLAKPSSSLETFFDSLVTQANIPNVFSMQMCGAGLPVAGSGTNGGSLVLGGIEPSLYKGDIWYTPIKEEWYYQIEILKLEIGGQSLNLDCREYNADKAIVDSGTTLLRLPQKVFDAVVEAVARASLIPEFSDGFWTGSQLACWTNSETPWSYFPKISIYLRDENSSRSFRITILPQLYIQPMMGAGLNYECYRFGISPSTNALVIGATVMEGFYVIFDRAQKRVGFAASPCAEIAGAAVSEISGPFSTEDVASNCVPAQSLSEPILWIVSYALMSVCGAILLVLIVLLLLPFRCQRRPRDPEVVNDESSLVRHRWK

SMILES: CN1C(=N)N[C@](C)(c2cc(-c3ccc(F)c(C#N)c3)cs2)CC1=O [reference compound]
- Caco-2 AP → BL (nm/s) (Iminopyrimidinone) (Caco-2 cells): 136 nm/s

SMILES: CN1C(=N)N[C@](C)(c2cc(NC(=O)c3ccc(F)cn3)ccc2F)CC1=O [drawing 717, reference compound]
- Change in rat cortex Aβ40 (Iminopyrimidinone) (rat cortex Aβ40): −3%

SMILES: COc1cnc(C(=O)Nc2ccc(F)c([C@]3(C)CS(=O)(=O)N(C)C(=N)N3)c2)cn1 [Example 40ai]
- Papp A→B at 2 h [1]: 13.3 ×10⁻⁶ cm/s
- Change in rat cortex Aβ40 (Iminothiadiazine Dioxide) (rat cortex Aβ40): −51%

SMILES: CN1C(=N)N[C@](C)(c2cc(-c3cccc(C#N)c3)cs2)CS1(=O)=O [Example 45]
- Papp A→B at 2 h [1]: 22.6 ×10⁻⁶ cm/s

SMILES: COc1cnc(C(=O)Nc2cc(F)c(F)c([C@]3(C)CC(=O)N(C)C(=N)N3)c2)cn1 [drawing 735, reference compound]
- Caco-2 AP → BL (nm/s) (Iminopyrimidinone) (Caco-2 cells): 65 nm/s

SMILES: CN1C(=N)N[C@](C)(c2cc(-c3ccc(F)c(C#N)c3)cs2)CS1(=O)=O [Example 46]
- Papp A→B at 2 h [1]: 18.9 ×10⁻⁶ cm/s

SMILES: CN1C(=N)N[C@](C)(c2cc(NC(=O)c3ccc(C(F)(F)F)cn3)ccc2F)CS1(=O)=O [Example 26]
- Papp A→B at 2 h [1]: 8.9 ×10⁻⁶ cm/s
- Change in rat cortex Aβ40 (Iminothiadiazine Dioxide) (rat cortex Aβ40): −33%

SMILES: CN1C(=N)N[C@](C)(c2cc(NC(=O)c3ccc(C(F)(F)F)cn3)ccc2F)CC1=O [drawing 707, reference compound]
- Change in rat cortex Aβ40 (Iminopyrimidinone) (rat cortex Aβ40): 0%

SMILES: CN1C(=N)N[C@](C)(c2cccc(Nc3ncccc3C#N)n2)CS1(=O)=O [Example 164]
- pKi ([2]; about values): ≤ 6.30

SMILES: CN1C(=N)N[C@](C)(c2cc(NC(=O)c3ccc(Cl)cn3)ccc2F)CC1=O [drawing 727, reference compound]
- Caco-2 AP → BL (nm/s) (Iminopyrimidinone) (Caco-2 cells): 0 nm/s

SMILES: Cc1ccc(C(=O)Nc2ccc(F)c([C@]3(C)CC(=O)N(C)C(=N)N3)c2)nc1 [reference compound]
- Caco-2 AP → BL (nm/s) (Iminopyrimidinone) (Caco-2 cells): 0 nm/s

SMILES: CC1[C@@](C)(c2cccc(-c3cccc(C#N)c3)c2)NC(=N)N(C)S1(=O)=O (stereo partly shown) [Example 101]
- pKi [3]: ≤ 5.30

SMILES: CN1C(=N)N[C@](C)(c2cccs2)CS1(=O)=O [Example 19]
- pKi [3]: ≤ 5.30

SMILES: CN1C(=N)N[C@](C)(c2cc(NC(=O)c3ccc(Cl)cn3)ccc2F)CC1=O [drawing 705, reference compound]
- Change in rat cortex Aβ40 (Iminopyrimidinone) (rat cortex Aβ40): −19%

SMILES: CN1C(=N)N[C@](C)(c2cc(NC(=O)c3ccc(F)cn3)ccc2F)CC1=O [drawing 739, reference compound]
- efflux ratio at 2 h ([1]; Caco-2, Papp BL to AP / Papp AP to BL, iminopyrimidinone analog): 6.1
- Caco-2 AP → BL (nm/s) (Iminopyrimidinone) (Caco-2 cells): 25 nm/s

SMILES: CN1C(=N)N[C@](C)(c2cc(-c3cccc(C#N)c3)cs2)CC1=O [drawing 741, reference compound]
- Caco-2 AP → BL (nm/s) (Iminopyrimidinone) (Caco-2 cells): 174 nm/s

SMILES: CN1C(=N)N[C@](C)(c2cc(NC(=O)c3c(F)cncc3C(F)(F)F)cc(F)c2F)CS1(=O)=O [Example 40ex]
- pKi ([2]; about values): ≤ 6.30

SMILES: CN1C(=N)N[C@](C)(c2cc(-c3cccc(C#N)c3)cs2)CC1=O [drawing 719, reference compound]
- Change in rat cortex Aβ40 (Iminopyrimidinone) (rat cortex Aβ40): −5%

SMILES: Cc1cnc(C(=O)Nc2cc([C@]3(C)CS(=O)(=O)N(C)C(=N)N3)ccn2)cn1 [Example 40x]
- pKi [3]: ≤ 5.30

SMILES: CN1C(=N)NC(C)(c2cc(NC(=O)N3CCCCC3)ccc2F)CS1(=O)=O (stereo not shown) [Example 160]
- pKi [2]: ≤ 6.30

SMILES: CN1C(=N)N[C@](C)(c2cc(-c3cccc(C#N)c3)cs2)CC1=O [Compound Z]
- Assay (Area %), degradation flag ([4]; pH 7.4, 4° C., 2 days): — ((—) stands for >20% degradation)
- Assay (Area %), degradation flag ([4]; pH 7.4, 4° C., 6 days): — ((—) stands for >20% degradation)
- Assay (Area %), degradation flag ([4]; pH 7.4, 25° C., 2 days): — ((—) stands for >20% degradation)
- Assay (Area %), degradation flag ([4]; pH 7.4, 25° C., 6 days): — ((—) stands for >20% degradation)
- Assay (Area %), degradation flag ([4]; pH 7.4, 40° C., 2 days): — ((—) stands for >20% degradation)
- Assay (Area %), degradation flag ([4]; pH 7.4, 40° C., 6 days): — ((—) stands for >20% degradation)
- hydrolysis product [5]: 12.45%

SMILES: Cc1cnc(C(=O)Nc2ccc(F)c([C@]3(C)CC(=O)N(C)C(=N)N3)c2)cn1 [reference compound]
- Caco-2 AP → BL (nm/s) (Iminopyrimidinone) (Caco-2 cells): 11 nm/s

SMILES: CN1C(=N)N[C@](C)(c2c(F)ccc(NC(=O)c3ccc(F)cn3)c2F)CS1(=O)=O [Example 173]
- Caco-2 AP → BL (nm/s) (Iminothiadiazine Dioxide) (Caco-2 cells): 126 nm/s
- Change in rat cortex Aβ40 (Iminothiadiazine Dioxide) (rat cortex Aβ40): −27%

SMILES: CN1C(=N)N[C@](C)(c2cc(NC(=O)c3ccc(F)cn3)ccc2F)CC1=O [drawing 709, reference compound]
- Change in rat cortex Aβ40 (Iminopyrimidinone) (rat cortex Aβ40): −11%

SMILES: CN1C(=N)N[C@](C)(c2cc(NC(=O)c3ccc(F)cn3)ccc2F)CS1(=O)=O [Example 25]
- Papp A→B at 2 h [1]: 12.8 ×10⁻⁶ cm/s
- Change in rat cortex Aβ40 (Iminothiadiazine Dioxide) (rat cortex Aβ40): −49%

SMILES: CN1C(=N)N[C@](C)(c2cc(NC(=O)c3ccc(Cl)cn3)ccc2F)CS1(=O)=O [Example 34]
- Papp A→B at 2 h [1]: 11.8 ×10⁻⁶ cm/s
- Change in rat cortex Aβ40 (Iminothiadiazine Dioxide) (rat cortex Aβ40): −51%

SMILES: Cc1ccc(C(=O)Nc2ccc(F)c([C@]3(C)CS(=O)(=O)N(C)C(=N)N3)c2)nc1 [Example 35]
- Papp A→B at 2 h [1]: 15.1 ×10⁻⁶ cm/s

SMILES: CN1C(=N)N[C@](C)(c2cc(NC(=O)c3ccc(C(F)(F)F)cn3)ccc2F)CC1=O [drawing 729, reference compound]
- Caco-2 AP → BL (nm/s) (Iminopyrimidinone) (Caco-2 cells): 17 nm/s

SMILES: Cc1cnc(C(=O)Nc2ccc(F)c([C@]3(C)CS(=O)(=O)N(C)C(=N)N3)c2)cn1 [Example 36]
- Papp A→B at 2 h [1]: 5.4 ×10⁻⁶ cm/s
- Change in rat cortex Aβ40 (Iminothiadiazine Dioxide) (rat cortex Aβ40): −25%

SMILES: CC#Cc1cncc(-c2cc(Cl)c([C@]3(C)CC(=O)N(C)C(=N)N3)s2)c1 [drawing 745, reference compound]
- Caco-2 AP → BL (nm/s) (Iminopyrimidinone) (Caco-2 cells): 153 nm/s

SMILES: CN1C(=N)N[C@](C)(c2cc(NC(=O)N3CCOCC3)ccc2F)CS1(=O)=O [Example 161a]
- pKi ([2]; about values): ≤ 6.30

SMILES: CCc1cc2cc(F)c([C@]3(C)CS(=O)(=O)N(C)C(=N)N3)cc2[nH]1 [Example 189]
- pKi [3]: ≤ 5.30

SMILES: COc1cnc(C(=O)Nc2cc(F)c(F)c([C@]3(C)CC(=O)N(C)C(=N)N3)c2)cn1 [drawing 713, reference compound]
- Change in rat cortex Aβ40 (Iminopyrimidinone) (rat cortex Aβ40): +5%

SMILES: CC[C@H]1[C@@](C)(c2cc(F)ccc2F)NC(=N)N(C)S1(=O)=O [Example 98]
- pKi [3]: ≤ 5.30

SMILES: CN1C(=N)N[C@](C)(c2cc(NC(=O)c3ccc(S(C)(=O)=O)cn3)cc(F)c2F)CS1(=O)=O [Example 40do]
- pKi ([2]; about values): ≤ 6.30

SMILES: CC#Cc1cncc(-c2cc(Cl)c([C@]3(C)CS(=O)(=O)N(C)C(=N)N3)s2)c1 [Example 52]
- Papp A→B at 2 h [1]: 27.8 ×10⁻⁶ cm/s

SMILES: CN1C(=N)N[C@](C)(c2cc(NC(=O)c3ccc(F)cn3)ccc2F)CC1=O [drawing 731, reference compound]
- Caco-2 AP → BL (nm/s) (Iminopyrimidinone) (Caco-2 cells): 22 nm/s

SMILES: COc1cnc(C(=O)Nc2cc(F)c(F)c([C@]3(C)CS(=O)(=O)N(C)C(=N)N3)c2)cn1 [Example 40di]
- Papp A→B at 2 h [1]: 13.6 ×10⁻⁶ cm/s
- Change in rat cortex Aβ40 (Iminothiadiazine Dioxide) (rat cortex Aβ40): −38%
